Measurements published in publication PMC10580965 (Microbiology Spectrum, 2023).
Converted amounts (≈) assume the structure as drawn. Where two headings read alike, the source gives them in different places. Bridge positions count the residues as written; N and C are the ends. Square brackets hold non-standard residues; d marks the D form. Peptide text beside a SMILES is read from it. * marks the point of attachment. Ileψ(thiazoline)Cys = CC[C@H](C)[C@H](N)C1=N[C@H](C(=O)*)CS1; dOrn = NCCC[C@@H](N)C(=O)O; X1 = CC[C@H](C)CCCCC(=O)*; Dab = NCC[C@H](N)C(=O)O

Experiments:
[1] = system: C. pseudotuberculosis ΔlysX
[2] = system: C. pseudotuberculosis ΔalaDAGS

Row | Compound | MIC ΔlysX [1] [µg/mL] | MIC ΔalaDAGS [2] [µg/mL] | wt/ΔlysX (fold-change) [1] [fold-change] | MIC ΔalaDAGS ([2]; 24 h) [µg/mL] | MIC ΔlysX ([1]; 24 h) [µg/mL] | protective advantage conferred by lysX [1]
1 | CNC(C)C1CCC(N)C(OC2C(N)CC(N)C(OC3OCC(C)(O)C(NC)C3O)C2O)O1 (stereo not shown) [Gentamicin] | 0.078 (≈ 0.163 µM) | – | – | – | – | –
2 | CCCNC[C@]1(O)[C@H](C)O[C@@H](O[C@H]2[C@H](C)[C@@H](O[C@@H]3O[C@H](C)C[C@H](N(C)C)[C@H]3O)[C@](C)(O)C[C@@H](C)CN[C@H](C)[C@@H](O)[C@](C)(O)[C@@H](CC)OC(=O)[C@@H]2C)C[C@@]1(C)OC [Tulathromycin] | 1.25 (≈ 1.55 µM) | 2.5 (≈ 3.1 µM) | 2 | – | – | –
3 | NC[C@H]1O[C@H](O[C@H]2[C@H](O)[C@@H](O[C@H]3O[C@H](CO)[C@@H](O)[C@H](N)[C@H]3O)[C@H](N)C[C@@H]2N)[C@H](O)[C@@H](O)[C@@H]1O [Kanamycin] | 1.25 (≈ 2.58 µM) | 10 (≈ 20.6 µM) | 8 | – | – | –
4 | Nisin | 2.5 | 80 | 32 | – | – | –
5 | CC[C@H](C)[C@H](NC(=O)CN)C(=O)NCC(=O)N[C@@H](C)C(=O)N[C@H](C(=O)N[C@@H](CC(C)C)C(=O)N[C@@H](CCCCN)C(=O)N[C@H](C(=O)N[C@@H](CC(C)C)C(=O)N[C@H](C(=O)N[C@H](C(=O)NCC(=O)N[C@@H](CC(C)C)C(=O)N1CCC[C@H]1C(=O)N[C@@H](C)C(=O)N[C@@H](CC(C)C)C(=O)N[C@H](C(=O)N[C@@H](CO)C(=O)N[C@@H](Cc1c[nH]c2ccccc12)C(=O)N[C@H](C(=O)N[C@@H](CCCCN)C(=O)N[C@@H](CCCNC(=N)N)C(=O)N[C@@H](CCCCN)C(=O)N[C@@H](CCCNC(=N)N)C(=O)N[C@@H](CCC(N)=O)C(=O)N[C@@H](CCC(N)=O)C(N)=O)[C@@H](C)CC)[C@@H](C)CC)[C@@H](C)O)[C@@H](C)O)C(C)C)C(C)C [Melittin] | – | – | >4 | >40 | 10 (≈ 3.51 µM) | –
6 | CC[C@H](C)[C@H](N)C1=N[C@H](C(=O)N[C@@H](CC(C)C)C(=O)N[C@H](CCC(=O)O)C(=O)N[C@H](C(=O)N[C@H]2CCCCNC(=O)[C@H](CC(N)=O)NC(=O)[C@@H](CC(=O)O)NC(=O)[C@H](Cc3cnc[nH]3)NC(=O)[C@@H](Cc3ccccc3)NC(=O)[C@H]([C@@H](C)CC)NC(=O)[C@@H](CCCN)NC2=O)[C@@H](C)CC)CS1 [Bacitracin] ({Ileψ(thiazoline)Cys}-L[dE]IK[dOrn]I[dF]H[dD]N; lactam 4-C (inferred); N-terminus assumed) | – | – | 2 | 6.4 (≈ 4.5 µM) | 3.2 (≈ 2.25 µM) | –
7 | CO/N=C(\C(=O)N[C@@H]1C(=O)N2C(C(=O)O)=C(CSc3nc(=O)c(=O)[nH]n3C)CS[C@H]12)c1csc(N)n1 [Ceftriaxone] | – | – | – | – | – | no protective advantage
8 | CC[C@H](C)CCCCC(=O)N[C@@H](CCN)C(=O)N[C@H](C(=O)N[C@@H](CCN)C(=O)N[C@H]1CCNC(=O)[C@H]([C@@H](C)O)NC(=O)[C@H](CCN)NC(=O)[C@H](CCN)NC(=O)[C@H](CC(C)C)NC(=O)[C@@H](Cc2ccccc2)NC(=O)[C@H](CCN)NC1=O)[C@@H](C)O [Polymyxin B] (X1-[Dab]T[Dab][Dab][Dab][dF]L[Dab][Dab]T; lactam 4-C (inferred); N-terminus assumed) | – | – | – | 640 (≈ 532 µM) | 10 (≈ 8.31 µM) | –
9 | CN[C@H](CC(C)C)C(=O)N[C@H]1C(=O)N[C@@H](CC(N)=O)C(=O)N[C@H]2C(=O)N[C@H]3C(=O)N[C@H](C(=O)N[C@H](C(=O)O)c4cc(O)cc(O)c4-c4cc3ccc4O)[C@H](O)c3ccc(c(Cl)c3)Oc3cc2cc(c3O[C@@H]2O[C@H](CO)[C@@H](O)[C@H](O)[C@H]2O[C@H]2C[C@](C)(N)[C@H](O)[C@H](C)O2)Oc2ccc(cc2Cl)[C@H]1O [Vancomycin] | – | – | 2 | 0.75 (≈ 0.518 µM) | 0.375 (≈ 0.259 µM) | –
